Here are results for two molecules from publication PMC10424716, “Discovery selective acetylcholinesterase inhibitors to control Tetranychus urticae (Acari: Tetranychidae)” (Journal of Insect Science, 2023).

This assay addresses T1, T. urticae AChE (TuAChE) (Tetranychus cinnabarinus, UniProt M9T420).
T1 construct: gene ace1; methods also mention mite extracts
T1 sequence (M9T420 1-687): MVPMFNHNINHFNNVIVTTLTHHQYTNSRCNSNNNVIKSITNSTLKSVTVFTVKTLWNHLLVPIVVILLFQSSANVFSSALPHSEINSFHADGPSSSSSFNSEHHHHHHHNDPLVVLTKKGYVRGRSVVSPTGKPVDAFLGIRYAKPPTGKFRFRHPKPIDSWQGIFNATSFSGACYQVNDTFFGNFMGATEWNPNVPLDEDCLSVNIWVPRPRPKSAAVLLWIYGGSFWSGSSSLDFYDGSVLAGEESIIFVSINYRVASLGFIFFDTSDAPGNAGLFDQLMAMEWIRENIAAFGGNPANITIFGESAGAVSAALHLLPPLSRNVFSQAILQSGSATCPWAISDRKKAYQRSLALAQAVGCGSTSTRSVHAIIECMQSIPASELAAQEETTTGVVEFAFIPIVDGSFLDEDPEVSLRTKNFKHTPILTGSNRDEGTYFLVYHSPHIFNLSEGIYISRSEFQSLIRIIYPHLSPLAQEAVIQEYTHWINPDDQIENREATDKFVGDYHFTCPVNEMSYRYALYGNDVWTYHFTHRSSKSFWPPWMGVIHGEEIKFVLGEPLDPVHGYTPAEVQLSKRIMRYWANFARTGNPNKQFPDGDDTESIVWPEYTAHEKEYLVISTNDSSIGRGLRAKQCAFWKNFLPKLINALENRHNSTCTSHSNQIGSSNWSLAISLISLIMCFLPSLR
The assay is described as follows: modified Ellman assay, […] nm. The format is biochemical. (DTNB colorimetry detects thiols as they appear.)

SMILES strings stand for the structures. Where two headings read alike, the source gives them in different places.

As to `CNC(=O)Oc1ccc2c(c1)[C@]1(C)CCN(C)[C@@H]1N2C` [eserine], the IC50 is 3.81 mM. Consider `O=C(c1ccc2occc2c1)N1CCC(OCc2ccccc2)CC1` [compound 8, 1-(1-benzofuran-5-ylcarbonyl)-4-(benzyloxy) piperidine], for which the IC50 (read-out: IC50(mM) / TuAChE) was 1.51 mM.
